Reference: patent US7981912B2, “Indole acetic acids exhibiting CRTH2 receptor antagonism and uses thereof” (Wyeth LLC, priority 2004, dated 2011)

target: T1, human CRTH2 (Homo sapiens, UniProt Q9Y5Y4); assay: CRTH-2 binding assay (scintillation proximity assay, inhibition of 3H-PGD2 binding); design: expressed in transfected cells; host or cells: HEK 293EBNA-hCRTH2 (membrane preparation); details: inhibition of 3H-PGD2 (3.6 nM) binding to HEK 293EBNA-hCRTH2 membranes; Ki calculated from IC50
T1 sequence (Q9Y5Y4 1-395): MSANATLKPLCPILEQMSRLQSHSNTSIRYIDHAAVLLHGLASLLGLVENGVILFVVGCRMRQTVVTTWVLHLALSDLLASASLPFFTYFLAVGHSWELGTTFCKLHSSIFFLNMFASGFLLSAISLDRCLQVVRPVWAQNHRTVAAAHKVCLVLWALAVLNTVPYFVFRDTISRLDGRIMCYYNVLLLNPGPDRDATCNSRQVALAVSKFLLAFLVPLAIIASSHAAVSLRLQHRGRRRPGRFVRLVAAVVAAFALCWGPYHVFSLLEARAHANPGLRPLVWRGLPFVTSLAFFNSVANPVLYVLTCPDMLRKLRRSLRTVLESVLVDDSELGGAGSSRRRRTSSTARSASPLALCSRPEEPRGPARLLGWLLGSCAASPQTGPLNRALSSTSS
Experimental: A CRTH2 binding assay was developed to measure the ability of compounds to inhibit the binding of PGD2 to human CRTH2 using a scintillation proximity assay.
Membranes containing hCRTH2 receptors were prepared from HEK 293EBNA-hCRTH2 cells (a HEK 293EBNA cell line stably expressing human CRTH2). The cells were grown to confluency, harvested and washed with PBS. The cells were resuspended in 10 mM Hepes pH 7.4, 1 mM EDTA and protease inhibitors and incubated for 30 min on ice. The cells were homogenized and centrifuged for 10 min at 1000×g. The supernate was centrifuged for 30 min at 100,000×g and the membrane pellet was then resusupended in 10 mM Hepes pH 7.4 and 1 mM EDTA. The protein concentration of the membrane preparation was determined by Bradford assay (Bio-Rad).
The ability of compounds to inhibit the interaction of PGD2 to human CRTH2 was determined at seven compound concentrations. Compounds were serially diluted in DMSO then diluted into CRTH2 buffer without glycerol (10 mM Hepes pH 7.4, 1 mM EDTA, 10 mM MnCl2) to six times the final desired concentration. 20 μL of the diluted compounds were transferred into non-surface binding 96 well plates (Corning). Each concentration was done in triplicate. In addition to test compounds, each plate contained 12 control wells. Six of these wells contained 20 μL of CRTH2 buffer without glycerol. These wells were used to measure total binding. Six wells contained 20 μL of CRTH2 buffer without glycerol plus 1.5 mM indomethacin. These wells were used to measure non-specific binding. Next, HEK 293EBNA-hCRTH2 membranes were resuspended in CRTH2 buffer with glycerol (10 mM Hepes pH 7.4, 1 mM EDTA, 10 mM MnCl2, 25% glycerol) so that the final concentration was approximately 20 μg protein/100 μL. Polylysine coated yttrium silicate SPA beads (Amershamn) were added to the membrane mix to a concentration of 0.4 mg/100 μL and finally ^3H-PGD2 was added to the membrane/SPA bead mix to 3.6 nM. 100 μL of the membrane/SPA bead/^3H-PGD2 mix was added to each well of the non-surface binding plates containing the diluted compound plus controls. The plates were incubated for 2 hours at room temperature with shaking and then the plates were counted on a Microbeta scintillation counter (Perkin Elmer) for 1 min per well.
IC50 values were determined from the experimental results by nonlinear regression using Prism 4.0 software. The IC50 values were then used in conjunction with the […] for hCRTH2 and the ^3H-PGD2 concentration used in the experiment to calculate the Ki for each compound.

Row | SMILES | Ki [nM]
1 | C=CCN1C(c2c(C)n(CC(=O)O)c3ccccc23)c2ccccc2S1(=O)=O (centres unmarked) [Example 45, [3-(2-Allyl-1,1-dioxo-2,3-dihydro-1H-1λ^6-benzo[d]isothiazol-3-yl)-2-methyl-indol-1-yl]-acetic acid] | < 1000
2 | O=C(O)Cn1cc(C2NS(=O)(=O)c3ccccc32)c2cc(Br)ccc21 (centres unmarked) [Example 8, [5-Bromo-3-(1,1-dioxo-2,3-dihydro-1H-1λ^6-benzo[d]isothiazol-3-yl)-indol-1-yl]-acetic acid] | < 10000
3 | O=C(O)Cn1cc(-c2nn(Cc3ccccc3)c(=O)c3ccccc23)c2ccccc21 [Example 15, [3-(3-Benzyl-4-oxo-3,4-dihydro-phthalazin-1-yl)-indol-1-yl]-acetic acid] | < 1000
4 | Cc1c(C2=NN(Cc3ccc(Cl)cc3)S(=O)(=O)c3ccccc32)c2cc(F)ccc2n1CC(=O)O [Example 78, {3-[2-(4-Chloro-benzyl)-1,1-dioxo-1,2-dihydro-1λ^6-benzo[e][1,2,3]thiadiazin-4-yl]-5-fluoro-2-methyl-indol-1-yl}-acetic acid] | < 1000
5 | Cc1nc(CN2C(c3c(C)n(CC(=O)O)c4ccccc34)c3ccccc3S2(=O)=O)cs1 (centres unmarked) [Example 42, {2-Methyl-3-[2-(2-methyl-thiazol-4-ylmethyl)-1,1-dioxo-2,3-dihydro-1H-1λ^6benzo[d]isothiazol-3-yl]-indol-1-yl}-acetic acid] | < 1000
6 | Cc1ccc2c(c1)c(C1NS(=O)(=O)c3ccccc31)cn2CC(=O)O (centres unmarked) [Example 2, [3-(1,1-Dioxo-2,3-dihydro-1H-1λ^6-benzo[d]isothiazol-3-yl)-5-methyl-indol-1-yl]-acetic acid] | < 10000
7 | CCCN1N=C(c2c(C)n(CC(=O)O)c3ccc(F)cc23)c2ccccc2S1(=O)=O [Example 92, [3-(2-Propyl-1,1-dioxo-1,2-dihydro-1λ^6-benzo[e][1,2,3]thiadiazin-4-yl)-5-fluoro-2-methyl-indol-1-yl]-acetic acid] | < 100
8 | CN1C(=O)c2ccccc2C1c1cn(CC(=O)O)c2ccccc12 (centres unmarked) [Example 20, [3-(2-Methyl-3-oxo-2,3-dihydro-1H-isoindol-1-yl)-indol-1-yl]-acetic acid] | > 10000
9 | Cc1c(C2c3ccccc3S(=O)(=O)N2Cc2ccc(F)cc2)c2cc(Cl)ccc2n1CC(=O)O (centres unmarked) [Example 60, {5-Chloro-3-[2-(4-fluoro-benzyl)-1,1-dioxo-2,3-dihydro-1H-1λ^6-benzo[d]isothiazol-3-yl]-2-methyl-indol-1-yl}-acetic acid] | < 1000
10 | Cc1c(C2c3ccc(F)cc3S(=O)(=O)N2CCc2ccccc2)c2ccccc2n1CC(=O)O (centres unmarked) [Example 64, [3-(6-Fluoro-1,1-dioxo-2-phenethyl-2,3-dihydro-1H-1λ^6-benzo[d]isothiazol-3-yl)-2-methyl-indol-1-yl]-acetic acid] | < 100
11 | Cc1ccc2c(c1)c(C1c3ccccc3S(=O)(=O)N1Cc1ccc(F)cc1)cn2CC(=O)O (centres unmarked) [Example 49, {3-[2-(4-Fluoro-benzyl)-1,1-dioxo-2,3-dihydro-1H—1λ^6-benzo[d]isothiazol-3-yl]-5-methyl-indol-1-yl}-acetic acid] | < 1000
12 | Cc1c(C2c3ccccc3S(=O)(=O)N2CC(=O)Nc2ccc(F)cc2)c2ccccc2n1CC(=O)O (centres unmarked) [Example 37, (3-{2-[(4-Fluoro-phenylcarbamoyl)-methyl]-1,1-dioxo-2,3-dihydro-1H-1λ^6-benzo[d]isothiazol-3-yl}-2-methyl-indol-1-yl)-acetic acid] | < 10000
13 | Cc1noc(C)c1CN1C(c2c(C)n(CC(=O)O)c3ccccc23)CCS1(=O)=O (centres unmarked) [Example 69, {3-[2-(3,5-Dimethyl-isoxazol-4-ylmethyl)-1,1-dioxo-λ^6-isothiazolidin-3-yl]-2-methyl-indol-1-yl}-acetic acid] | < 100
14 | Cc1noc(C)c1CN1C(=O)c2ccccc2C1c1cn(CC(=O)O)c2ccccc12 (centres unmarked) [Example 22, {3-[2-(3,5-Dimethyl-isoxazol-4-ylmethyl)-3-oxo-2,3-dihydro-1H-isoindol-1-yl]-indol-1-yl}-acetic acid] | < 1000
